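Where inhibition never reached the appropriate level, the endpoint shown equals the highest concentration tested. Otherwise, values were interpolated linearly from a five-concentration, 48-hour dose response in 96-well plates. Here, GI50 denotes the concentration required for 50% inhibition of growth. TGI is the concentration that stops growth completely.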
Columns and labels:
Assay in all cases: inhibition of tumour cell growth, NCI panel, 48 h
A498 renal = system: A498 renal
A549 NSCLC = system: A549 NSCLC
ACHN renal = system: ACHN renal
HCT-116 colon = system: HCT-116 colon
NCI-H460 lung = system: NCI-H460 lung
OVCAR-3 ovarian = system: OVCAR-3 ovarian
SK-MEL-5 melanoma = system: SK-MEL-5 melanoma
SN12C renal = system: SN12C renal
SW-620 colon = system: SW-620 colon
TK-10 renal = system: TK-10 renal

SMILES	GI50 (A498 renal)	TGI (A498 renal)	GI50 (A549 NSCLC)	TGI (A549 NSCLC)	GI50 (ACHN renal)	TGI (ACHN renal)	GI50 (HCT-116 colon)	TGI (HCT-116 colon)	GI50 (NCI-H460 lung)	TGI (NCI-H460 lung)	GI50 (OVCAR-3 ovarian)	TGI (OVCAR-3 ovarian)	GI50 (SK-MEL-5 melanoma)	TGI (SK-MEL-5 melanoma)	GI50 (SN12C renal)	TGI (SN12C renal)	GI50 (SW-620 colon)	TGI (SW-620 colon)	GI50 (TK-10 renal)	TGI (TK-10 renal)
CN1CCN(c2nc(NCCNc3ccnc4cc(Cl)ccc34)c3ccccc3n2)CC1	12.3 µM	25.5 µM	1.44 µM	5.97 µM	2.85 µM	8.27 µM	0.448 µM	7.62 µM	1.7 µM	6.49 µM	2.21 µM	7.44 µM	1.72 µM	3.12 µM	2.03 µM	5.6 µM	0.391 µM	13.3 µM	2.72 µM	7.93 µM
CC(=O)OC1CC[C@@]2(C)C(CC(OC3OC(CO)C(O)C(O)C3O)[C@]3(C)C2CCC24CC23CC[C@H]4C(C)CC(O)[C@@H](O)C(C)(C)O)C1(C)C (stereo partly drawn)	–	45.3 µM	–	> 50 µM	–	> 50 µM	–	18.9 µM	–	> 50 µM	–	48.7 µM	–	15.9 µM	–	30.7 µM	–	45.1 µM	–	> 50 µM
COc1cc(OC)c(Oc2cccc(OC)c2OC)c(OC)c1	–	> 100 µM	–	> 100 µM	–	> 100 µM	–	> 100 µM	–	> 100 µM	–	> 100 µM	–	> 100 µM	–	> 100 µM	–	> 100 µM	–	> 100 µM
N#CC1=C(N)Oc2c(sc3c(F)cccc23)C1c1ccc(Cl)cc1 (stereo not drawn)	2.57 µM	11.2 µM	4.24 µM	17.5 µM	4.62 µM	19.3 µM	3.7 µM	13.9 µM	3.38 µM	11.8 µM	2.6 µM	7.44 µM	3.68 µM	15.1 µM	4.33 µM	16.2 µM	3.47 µM	16.3 µM	8.38 µM	24.3 µM
CC(=N\O)/C(C)=N/O.CC(=N\O)/C(C)=N/O.[Pd]	4.9 µM	> 10 µM	7.03 µM	> 10 µM	> 10 µM	> 10 µM	2.38 µM	4.79 µM	9.28 µM	> 10 µM	3.83 µM	> 10 µM	1.81 µM	4.04 µM	8.65 µM	> 10 µM	3.44 µM	> 10 µM	4.57 µM	> 10 µM
COC1=C(C(=O)OC(C)(C)C)C23CCCCC2(C(C(=O)OC(C)(C)C)=C(OC)C3C(=O)OC(C)(C)C)C1C(=O)OC(C)(C)C (stereo not drawn)	–	> 100 µM	–	> 100 µM	–	> 100 µM	–	> 100 µM	–	> 100 µM	–	> 100 µM	–	36 µM	–	> 100 µM	–	> 100 µM	–	> 100 µM
Nc1ccc(Cl)cc1.Nc1ccc(Cl)cc1.Nc1ccc(Cl)cc1.O=C([O-])C(=O)[O-].O=C([O-])C(=O)[O-].[H+].[Ru+5]	> 82.1 µM	> 100 µM	0.351 µM	> 100 µM	0.0696 µM	> 25.4 µM	–	> 100 µM	1.05 µM	> 100 µM	1.1 µM	> 100 µM	–	> 100 µM	> 24.5 µM	> 100 µM	0.187 µM	> 100 µM	3.56 µM	> 100 µM
CCCCCCCC(=O)SCC/C=C/[C@@H]1CC(=O)NCc2cccc(n2)CN(Cc2ccc(Cl)cc2)CC(=O)N[C@@H](C(C)C)C(=O)O1	8.67 µM	22.8 µM	12.1 µM	97.7 µM	6.44 µM	49.8 µM	4.23 µM	15.6 µM	5.45 µM	> 100 µM	13.1 µM	49.4 µM	5.26 µM	17.6 µM	22.8 µM	> 100 µM	18 µM	> 100 µM	2.81 µM	23.6 µM
COc1ncn(C2C=C(CO)C(O)C2O)c(=O)n1 (stereo not drawn)	–	> 100 µM	–	> 100 µM	–	> 100 µM	–	> 100 µM	–	> 100 µM	–	> 100 µM	–	> 100 µM	–	> 100 µM	–	–	–	> 100 µM
O=C1/C=C(/c2ccc(O)cc2)[C@H](O)Cc2ccc(OC3OC(CO)C(O)C(O)C3O)cc2O1 (stereo partly drawn) (tested in a mixture with another compound)	–	> 100 µM	–	> 100 µM	–	> 100 µM	–	> 100 µM	–	> 100 µM	–	> 100 µM	–	> 100 µM	–	> 100 µM	–	> 100 µM	–	> 100 µM
O=C(Nc1ccc(Cl)cc1Cl)c1c/c(=N\O)c2ccc(O)cc2o1	–	> 100 µM	–	> 100 µM	–	> 100 µM	–	> 100 µM	–	> 100 µM	–	> 100 µM	–	> 100 µM	–	> 100 µM	–	> 100 µM	–	> 100 µM
NS(=O)(=O)OC[C@H]1O[C@@H](n2cnc3c(N[C@H]4CCc5ccccc54)ncnc32)[C@H](O)[C@@H]1O	0.0288 µM	0.124 µM	0.871 µM	3 µM	0.167 µM	0.57 µM	0.0213 µM	0.114 µM	0.408 µM	2.11 µM	0.0409 µM	0.145 µM	0.0369 µM	0.151 µM	0.231 µM	1.3 µM	0.245 µM	5.82 µM	0.608 µM	3.24 µM
CCCCc1c2c(nc3c1CCc1cc(C=O)c(N)nc1-3)/C(=C/c1ccccc1)CCC2	–	47.5 µM	–	61.5 µM	–	> 100 µM	–	> 100 µM	–	> 100 µM	–	> 100 µM	–	> 100 µM	–	> 100 µM	–	> 100 µM	–	> 100 µM
COc1ccc2c(c1)Cc1cc(N=[N+]([O-])c3ccc4c(c3)Cc3cc(OC)ccc3-4)ccc1-2	–	95 µM	–	> 100 µM	–	> 100 µM	–	> 100 µM	–	> 100 µM	–	> 100 µM	–	42.8 µM	–	> 100 µM	–	> 100 µM	–	> 100 µM
Cc1c(Br)cccc1NC(=O)c1sc2nc3c(cc2c1N)CN(Cc1ccccc1)CC3	0.186 µM	3.89 µM	0.491 µM	19.6 µM	0.444 µM	40 µM	0.182 µM	5.58 µM	0.191 µM	5.02 µM	0.157 µM	0.773 µM	0.201 µM	8.18 µM	0.384 µM	> 50 µM	0.164 µM	7.15 µM	1.19 µM	16.1 µM
CCCCCCCCOCC(O)COC (stereo not drawn)	–	> 100 µM	–	> 100 µM	–	> 100 µM	–	> 100 µM	–	> 100 µM	–	> 100 µM	–	> 100 µM	–	> 100 µM	–	> 100 µM	–	> 100 µM
Cc1cc(CC(O)(C(F)(F)F)C(F)(F)F)cc(CC(O)(C(F)(F)F)C(F)(F)F)n1	–	7.87 µM	–	10.9 µM	–	8.29 µM	–	6.09 µM	–	4.2 µM	–	2.76 µM	–	3.34 µM	–	9.25 µM	–	> 100 µM	–	13.6 µM
COc1cc(C2C3=C(COC3=O)N(CCO)c3cc4c(cc32)OCCO4)cc(OC)c1O (stereo not drawn)	1.41 µM	> 23.4 µM	9.71 µM	> 50 µM	5.94 µM	> 50 µM	2.15 µM	> 50 µM	1.75 µM	> 28.5 µM	0.947 µM	2.29 µM	1.29 µM	> 20.5 µM	4.1 µM	> 50 µM	1.83 µM	> 50 µM	6.61 µM	> 50 µM
CC(=O)O/N=C1\C=Cc2c(no[n+]2[O-])C1=O	–	30.3 µM	–	31.1 µM	–	30.9 µM	–	27.6 µM	–	> 100 µM	–	30 µM	–	31.6 µM	–	32.9 µM	–	9.04 µM	–	29 µM
O=C1/C(=C/c2ccc(F)cc2)CN(Cc2cn(CCNc3ccnc4cc(Cl)ccc34)nn2)C/C1=C\c1ccc(F)cc1	1.11 µM	2.35 µM	1.88 µM	4.23 µM	1.68 µM	3.04 µM	0.258 µM	0.721 µM	1.18 µM	2.57 µM	1.24 µM	2.5 µM	1.7 µM	3.06 µM	1.58 µM	3.09 µM	0.366 µM	1.39 µM	1.85 µM	3.45 µM
N=C(N)c1ccc(-c2ccc(-c3ccco3)o2)cc1	6.58 µM	20 µM	4.76 µM	18.9 µM	4.24 µM	15.3 µM	3.04 µM	10.3 µM	2.43 µM	6.6 µM	9.77 µM	22.1 µM	2.67 µM	9.76 µM	5.97 µM	21.2 µM	1.92 µM	4.09 µM	4.33 µM	15.6 µM
c1cc(C2O[C@H]3CCCN3[C@@H]2c2ccncc2)ccn1 (stereo partly drawn)	–	> 100 µM	–	> 100 µM	–	> 100 µM	–	> 100 µM	–	> 100 µM	–	> 100 µM	–	> 100 µM	–	> 100 µM	–	> 100 µM	–	> 100 µM
COc1ccc(CNCCN2C(=O)c3ccc4c5c(ccc(c35)C2=O)C(=O)N(CCNCc2ccc(OC)cc2)C4=O)cc1	0.647 µM	2.02 µM	0.329 µM	1.28 µM	0.312 µM	1.56 µM	0.147 µM	0.688 µM	0.25 µM	0.943 µM	0.159 µM	0.573 µM	0.15 µM	0.285 µM	0.159 µM	0.323 µM	0.168 µM	0.506 µM	0.201 µM	0.754 µM
CC(C)=CCNc1ncnc2c1ncn2C1OC(COP(=O)(O)O)C(O)C1O (stereo not drawn)	1.53 µM	3.3 µM	7.39 µM	> 100 µM	3.08 µM	> 100 µM	2.07 µM	25.5 µM	7.24 µM	> 100 µM	2.13 µM	4.41 µM	> 73.7 µM	> 100 µM	3.94 µM	> 100 µM	3.89 µM	> 100 µM	2.06 µM	5.59 µM
COc1ccc(C2CC(c3cccc(Nc4ccnc5cc(Cl)ccc45)c3)=NN2c2ccccc2)cc1 (stereo not drawn)	2.87 µM	81.2 µM	2 µM	> 100 µM	3.5 µM	33.2 µM	1.12 µM	18.7 µM	0.418 µM	12.2 µM	3.2 µM	> 100 µM	1.46 µM	4.76 µM	7.19 µM	> 100 µM	0.277 µM	14.4 µM	3.76 µM	97.2 µM
COc1cc(OC)cc(-c2n[nH]nc2-c2ccc3c(c2)OCO3)c1	0.343 µM	9.32 µM	0.289 µM	50.9 µM	0.705 µM	> 100 µM	0.181 µM	15.6 µM	0.335 µM	28.7 µM	0.0745 µM	0.378 µM	0.168 µM	11.9 µM	2.14 µM	> 100 µM	0.105 µM	> 100 µM	17.6 µM	> 100 µM
Oc1ccc(Br)cc1CN1CCN(Cc2ccc(Cl)cc2)CC1	0.4 µM	45 µM	25.1 µM	> 100 µM	31.7 µM	> 100 µM	21.1 µM	> 100 µM	25.7 µM	> 100 µM	26.3 µM	> 100 µM	13 µM	26.4 µM	27.1 µM	> 100 µM	22.2 µM	92.5 µM	24.8 µM	> 100 µM
COC(=O)c1ccc2c(c1)[n+](=O)c(C(C)=O)c(C(F)(F)F)n2[O-]	1.72 µM	3.3 µM	1.96 µM	3.7 µM	1.76 µM	3.24 µM	1.45 µM	2.76 µM	1.81 µM	3.45 µM	1.82 µM	3.27 µM	1.69 µM	3.06 µM	–	–	1.95 µM	3.83 µM	2.77 µM	6.05 µM
CCSc1sc(-c2ccc(C)cc2)nc1[P+](c1ccccc1)(c1ccccc1)c1ccccc1	0.161 µM	0.597 µM	–	–	0.285 µM	1.01 µM	0.252 µM	1.17 µM	0.306 µM	1.12 µM	0.3 µM	1.18 µM	0.174 µM	0.321 µM	0.294 µM	1.11 µM	0.332 µM	1.34 µM	0.271 µM	1.48 µM
